Experimental data reported in patent US10766869B2, “Triazoles for the treatment of demyelinating dieases” (Vertex Pharmaceuticals Incorporated, priority 2015, dated 2020).

System: primary rat mixed cortical cells
Assay: In vitro myelination assay (MBP positive myelin strands, fold myelin pixels above background)
Type: cell-based
Conditions: Rattus norvegicus, relative to baseline of no added compound; for fold induction at 1 µM: 1.0 μM compound, read-out: Fold myelin pixels above background, 1.0 μM; for fold induction at 10 µM: 10.0 μM compound, read-out: Fold myelin pixels above background, 10.0 μM
Text: In Vitro Myelination Assay
Compounds were screened for their ability to induce myelination using a primary rat mixed cortical cell culture assay, which contains neurons, oligodendrocyte precursor cells, oligodendrocytes, astrocytes and microglia. The assay quantifies myelination by measuring myelin basic protein (MBP) immunofluorescent positive myelin strands from images taken using a Cellomics Array Scan (model Arrayscan VTI HCS Reader) or a Molecular Devices Image Xpress (model IXM XL) high content imager. The myelin strands were quantitated using a custom created myelin detection software program. Test compounds were dissolved in DMSO to make a 10 mM initial stock solution. Dilutions were made in myelination medium to obtain the final solutions for the assay and were tested in primary rat mixed cortical cells at selected doses.
Primary rat mixed cortical cells were prepared from harvested cerebral cortices from postnatal day 1 (P1) rats (P1 Rat CD® IGS pups) were purchased from Charles River) in Complete Dissociation Medium, wherein the meninges were removed and the cortical tissue chopped with a razor blade into ˜1 mm^3 pieces. Tissue from 1-3 pups was collected and placed into 15 ml conical tubes in a total volume of 5 ml of Complete Dissociation Medium. Activated papain (3 ml) was added to each 15 ml conical tube and tissue was incubated at 37° C. for 30 minutes. After the 30 minute incubation, DNase (Sigma D4527; 75 μl of a 1 mg/ml stock) was added to each tube, followed by mechanical trituration using a 2 ml serological pipette and autopipettor to gently dissociate the tissue. Following trituration, larger tissue pieces were allowed to settle by gravity, and the supernatant containing dissociated cells was transferred to a 50 ml conical tube with 4 ml of trypsin inhibitor. Cells were pelleted by centrifugation, resuspended in myelination medium and filtered through a 40 μm filter. Cells were then seeded in 96-well plates (BD Biosciences, Black, PDL-coated, Cat. No. 356640) at 87,500-95,000 cells/well in a final volume of 200 μl of Myelination Medium in the presence or absence of compound and cultured for 14 days in a humidified 37° C. incubator with 5% CO2. Half the medium was removed and replaced with fresh medium containing 1× compound on days 6 and 10. Using a Biotek automatic plate washer (model Biomek® FXP Laboratory Automation Workstation), cells were fixed with 4% paraformaldehyde on day 14, washed with PBS and blocked in 5% normal goat serum (Vector Laboratories, S-1000) in 0.1% PBS-TritonX-100 (PBST) for 1 hour. Cells were stained with 1:500 anti-MBP (Covance, cat # SMI99) primary antibody in 1% normal goat serum in 0.1% PBST for 2 hours at room temperature followed by 2 washes with PBST. A final incubation in secondary antibody (1:1000, Invitrogen, Alexa-488 anti-mouse IgG2b) and 1:10,000 Hoechst dye in 1% normal goat serum in 0.1% PBST was performed for 2 hours at room temperature. Plates were washed with PBS and then scanned on a Cellomics Array Scan using a 10× objective (25 images per well) or the Image Xpress using a 10× objective (9 image per well). Images were analyzed using Vertex myelin detection software (described below) to quantify total MBP myelin pixels per well. Fold myelin pixels above background at two concentrations (1.0 μM and 10.0 μM) relative to baseline of no added compound are reported below in Table 4. Standard deviation for each compound concentration was calculated using all replicates and using a standard deviation formula commonly used in the art.
One of skill in the art would recognize that for this type of primary neuronal mixed cell assay variability between different assay runs is to be expected even though the protocol is the same for each assay run. For instance, variability may be due to small differences in cell viability, cell density, age of the animals, etc.
Vertex Myelin Detection Software: […]

Structure (SMILES) | fold induction at 1 µM | fold induction at 10 µM
Cc1cc(Nc2ncn(-c3ccnc(F)c3)n2)cc(N2CCN(C3COC3)CC2)c1 [Compound 40, 1-(2-fluoro-4-pyridyl)-N-[3-methyl-5-[4-(oxetan-3-yl)piperazin-1-yl]phenyl]-1,2,4-triazol-3-amine] | 1000 to 10000 | 10 to 100
CCOCC1CCCN1c1cc(F)cc(-n2cnc(Nc3cc(C)cc(N4CCN(C5COC5)CC4)c3)n2)c1 (centres unmarked) [Compound 41, 1-[3-[2-(ethoxymethyl)pyrrolidin-1-yl]-5-fluoro-phenyl]-N-[3-methyl-5-[4-(oxetan-3-yl)piperazin-1-yl]phenyl]-1,2,4-triazol-3-amine] | 10 to 100 | ≤ 1
Cc1cc(Nc2ncn(-c3ccnc(Cl)c3)n2)cc(N2CCCC2)c1 [Compound 42, 1-(2-chloro-4-pyridyl)-N-(3-methyl-5-pyrrolidin-1-yl-phenyl)-1,2,4-triazol-3-amine] | 10 to 100 | 100 to 1000
Cc1cc(Nc2ncn(-c3ccc(F)c(F)c3)n2)cc(N2CCOCC2)c1 [Compound 43, 1-(3,4-difluorophenyl)-N-(3-methyl-5-morpholino-phenyl)-1,2,4-triazol-3-amine] | 100 to 1000 | 100 to 1000
CC1CCN(c2cc(Nc3ncn(-c4ccccc4)n3)cc(C3CC3)n2)CC1 [Compound 44, 2-cyclopropyl-6-(4-methyl-1-piperidyl)-N-(1-phenyl-1,2,4-triazol-3-yl)pyridin-4-amine] | 1000 to 10000 | 1000 to 10000
Cc1cc(Nc2ncn(-c3ccccc3)n2)cc(N2CCOCC2)c1 [Compound 45, N-(3-methyl-5-morpholino-phenyl)-1-phenyl-1,2,4-triazol-3-amine] | 1000 to 10000 | 100 to 1000
Cc1cc(Nc2ncn(-c3ccc(F)c(F)c3)n2)cc(O[C@@H]2CCN(C3COC3)C2)c1 [Compound 46, 1-(3,4-difluorophenyl)-N-[3-methyl-5-[(3R)-1-(oxetan-3-yl)pyrrolidin-3-yl]oxy-phenyl]-1,2,4-triazol-3-amine] | 1000 to 10000 | 1 to 10
c1ccc(-n2cnc(Nc3cc(C4CC4)cc(N4CCN(C5COC5)CC4)c3)n2)cc1 [Compound 47, N-[3-cyclopropyl-5-[4-(oxetan-3-yl)piperazin-1-yl]phenyl]-1-phenyl-1,2,4-triazol-3-amine] | 100 to 1000 | ≤ 1
Fc1cc(Nc2ncn(-c3ccccc3F)n2)cc(N2CCOCC2)c1 [Compound 49, N-(3-fluoro-5-morpholino-phenyl)-1-(2-fluorophenyl)-1,2,4-triazol-3-amine] | ≤ 1 | 10 to 100
CCc1cc(Nc2ncn(-c3ncncc3F)n2)cc(N2CCN(C3COC3)CC2)c1 [Compound 50, N-[3-ethyl-5-[4-(oxetan-3-yl)piperazin-1-yl]phenyl]-1-(5-fluoropyrimidin-4-yl)-1,2,4-triazol-3-amine] | ≤ 1 | 1000 to 10000
Cc1cc(Nc2ncn(-c3ccccc3)n2)cc(C2CCN(C3(CS(=O)(=O)c4ccccc4)COC3)CC2)c1 [Compound 51, N-[3-[1-[3-(benzenesulfonylmethyl)oxetan-3-yl]-4-piperidyl]-5-methyl-phenyl]-1-phenyl-1,2,4-triazol-3-amine] | 100 to 1000 | 100 to 1000
Cc1cc(Nc2ncn(-c3ccc(F)c(F)c3)n2)cc(O[C@H]2CCN(C3COC3)C2)c1 [Compound 52, 1-(3,4-difluorophenyl)-N-[3-methyl-5-[(3S)-1-(oxetan-3-yl)pyrrolidin-3-yl]oxy-phenyl]-1,2,4-triazol-3-amine] | 1000 to 10000 | ≤ 1
Cc1cc(Nc2ncn(-c3cc(F)cc(F)c3)n2)cc(N2CCN(C)C(CO)C2)c1 (centres unmarked) [Compound 53, [4-[3-[[1-(3,5-difluorophenyl)-1,2,4-triazol-3-yl]amino]-5-methyl-phenyl]-1-methyl-piperazin-2-yl]methanol] | 10 to 100 | ≤ 1
Cc1cc(Nc2ncn(-c3cc(C)ccn3)n2)cc(N2CCN(C3COC3)CC2)c1 [Compound 54, N-[3-methyl-5-[4-(oxetan-3-yl)piperazin-1-yl]phenyl]-1-(4-methyl-2-pyridyl)-1,2,4-triazol-3-amine] | 10 to 100 | 100 to 1000
Clc1cccc(-n2cnc(Nc3cc(C4CC4)cc(N4CCN(C5COC5)CC4)c3)n2)c1 [Compound 55, 1-(3-chlorophenyl)-N-[3-cyclopropyl-5-[4-(oxetan-3-yl)piperazin-1-yl]phenyl]-1,2,4-triazol-3-amine] | 100 to 1000 | ≤ 1
COc1cc(F)cc(-n2cnc(Nc3cc(C)cc(N4CCN(C5COC5)CC4)c3)n2)c1 [Compound 56, 1-(3-fluoro-5-methoxy-phenyl)-N-[3-methyl-5-[4-(oxetan-3-yl)piperazin-1-yl]phenyl]-1,2,4-triazol-3-amine] | 100 to 1000 | 100 to 1000
Cc1cc(Nc2ncn(-c3ccccc3)n2)cc(N2CCNC([C@](C)(O)C(C)C)C2)n1 (stereo partly drawn) [Compound 57, (2R)-3-methyl-2-[4-[6-methyl-4-[(1-phenyl-1,2,4-triazol-3-yl)amino]-2-pyridyl]piperazin-2-yl]butan-2-ol] | 100 to 1000 | ≤ 1
CCc1cc(Nc2ncn(-c3cc(C)ncn3)n2)cc(N2CCN(C3COC3)CC2)c1 [Compound 58, N-[3-ethyl-5-[4-(oxetan-3-yl)piperazin-1-yl]phenyl]-1-(6-methylpyrimidin-4-yl)-1,2,4-triazol-3-amine] | 100 to 1000 | 100 to 1000
Cc1cc(Nc2ncn(-c3ccccc3)n2)cc(N2CCNC(CO)C2)c1 (centres unmarked) [Compound 59, [4-[3-methyl-5-[(1-phenyl-1,2,4-triazol-3-yl)amino]phenyl]piperazin-2-yl]methanol] | 100 to 1000 | 100 to 1000
Cc1cc(Nc2ncn(-c3ccccc3)n2)cc(C2CCCN(C)C2)c1 (centres unmarked) [Compound 60, N-[3-methyl-5-(1-methyl-3-piperidyl)phenyl]-1-phenyl-1,2,4-triazol-3-amine] | 1000 to 10000 | ≤ 1
Cc1cc(Nc2ncn(-c3cc(F)cc(F)c3)n2)cc(C2=CCN(C3COC3)CC2)c1 [Compound 61, 1-(3,5-difluorophenyl)-N-[3-methyl-5-[1-(oxetan-3-yl)-3,6-dihydro-2H-pyridin-4-yl]phenyl]-1,2,4-triazol-3-amine] | 1000 to 10000 | ≤ 1
FC(F)c1cc(Nc2ncn(-c3ccccc3)n2)cc(N2CCNCC2)c1 [Compound 62, N-[3-(difluoromethyl)-5-piperazin-1-yl-phenyl]-1-phenyl-1,2,4-triazol-3-amine] | 1000 to 10000 | ≤ 1
CN1CCN(c2cc(Nc3ncn(-c4cc(F)cc(F)c4)n3)cc(C(F)(F)F)c2)CC1 [Compound 63, 1-(3,5-difluorophenyl)-N-[3-(4-methylpiperazin-1-yl)-5-(trifluoromethyl)phenyl]-1,2,4-triazol-3-amine] | 10 to 100 | 1 to 10
CSc1nccc(-n2cnc(Nc3cc(C)cc(N4CCN(C5COC5)CC4)c3)n2)n1 [Compound 64, N-[3-methyl-5-[4-(oxetan-3-yl)piperazin-1-yl]phenyl]-1-(2-methylsulfanylpyrimidin-4-yl)-1,2,4-triazol-3-amine] | 10 to 100 | ≤ 1
Cc1cc(Nc2ncn(-c3ccccc3)n2)cc(C2CN(C3COC3)C2)c1 [Compound 65, N-[3-methyl-5-[1-(oxetan-3-yl)azetidin-3-yl]phenyl]-1-phenyl-1,2,4-triazol-3-amine] | 1000 to 10000 | 1 to 10
